# Source: the NIST ThermoML archive (doi:10.1021/je9002306)
# ± gives the expanded uncertainty stated by the source.
# Assays:
# [1] = mn = molality of the nth substance listed, in mol/kg; conditions: 298.15 K, 101.3 kPa, Liquid, Vibrating tube method
# [2] = cn = amount concentration of the nth substance listed, in mol/dm3; conditions: 298.15 K, 101.3 kPa, Liquid, Wayne-Kerr 6430B Auto Balance Bridge
smiles,measurement,setting,value
CCCCCCCCCCCCn1cc[n+](C)c1.[Br-] [1-dodecyl-3-methylimidazolium bromide] + OCCO,mass density,[1]; m1 = 0.003873,1109.91 ± 6.7 kg/m3
same,mass density,[1]; m1 = 0.007663,1109.87 ± 6.7 kg/m3
same,mass density,[1]; m1 = 0.01013,1109.85 ± 6.7 kg/m3
same,mass density,[1]; m1 = 0.0133,1109.82 ± 6.7 kg/m3
same,mass density,[1]; m1 = 0.0168,1109.78 ± 6.7 kg/m3
same,mass density,[1]; m1 = 0.02023,1109.75 ± 6.7 kg/m3
same,mass density,[1]; m1 = 0.03123,1109.63 ± 6.7 kg/m3
same,mass density,[1]; m1 = 0.03429,1109.6 ± 6.7 kg/m3
same,molar conductivity,[2]; c1 = 0.000348,0.000654 ± 1e-06 S·m2/mol
same,molar conductivity,[2]; c1 = 0.0004233,0.000653 ± 1e-06 S·m2/mol
same,molar conductivity,[2]; c1 = 0.0004995,0.000652 ± 1e-06 S·m2/mol
same,molar conductivity,[2]; c1 = 0.0005785,0.00065 ± 1e-06 S·m2/mol
same,molar conductivity,[2]; c1 = 0.0006521,0.000649 ± 1e-06 S·m2/mol
same,molar conductivity,[2]; c1 = 0.0007213,0.000648 ± 1e-06 S·m2/mol
same,molar conductivity,[2]; c1 = 0.0008076,0.000646 ± 1e-06 S·m2/mol
same,molar conductivity,[2]; c1 = 0.0008687,0.000645 ± 1e-06 S·m2/mol
same,molar conductivity,[2]; c1 = 0.0009337,0.000644 ± 1e-06 S·m2/mol
same,molar conductivity,[2]; c1 = 0.001012,0.000643 ± 1e-06 S·m2/mol
CCCCCCCCn1cc[n+](C)c1.[Br-] [1-methyl-3-octylimidazolium bromide] + CN(C)C=O,mass density,[1]; m1 = 0.0036,944.562 ± 4.8 kg/m3
same,mass density,[1]; m1 = 0.00742,944.824 ± 4.8 kg/m3
same,mass density,[1]; m1 = 0.01114,945.075 ± 4.8 kg/m3
same,mass density,[1]; m1 = 0.01485,945.316 ± 4.8 kg/m3
same,mass density,[1]; m1 = 0.01862,945.557 ± 4.8 kg/m3
same,mass density,[1]; m1 = 0.02243,945.792 ± 4.9 kg/m3
same,mass density,[1]; m1 = 0.02634,946.03 ± 4.9 kg/m3
same,mass density,[1]; m1 = 0.03009,946.26 ± 4.9 kg/m3
same,mass density,[1]; m1 = 0.03685,946.653 ± 4.9 kg/m3
same,mass density,[1]; m1 = 0.04079,946.877 ± 4.9 kg/m3
same,molar conductivity,[2]; c1 = 0.0002813,0.007841 ± 3e-06 S·m2/mol
same,molar conductivity,[2]; c1 = 0.0003412,0.007808 ± 3e-06 S·m2/mol
same,molar conductivity,[2]; c1 = 0.0003997,0.007775 ± 3e-06 S·m2/mol
same,molar conductivity,[2]; c1 = 0.0004885,0.007732 ± 3e-06 S·m2/mol
same,molar conductivity,[2]; c1 = 0.0005571,0.0077 ± 3e-06 S·m2/mol
same,molar conductivity,[2]; c1 = 0.0006412,0.007663 ± 3e-06 S·m2/mol
same,molar conductivity,[2]; c1 = 0.0007099,0.007638 ± 3e-06 S·m2/mol
same,molar conductivity,[2]; c1 = 0.0007743,0.007612 ± 3e-06 S·m2/mol
same,molar conductivity,[2]; c1 = 0.000834,0.00759 ± 3e-06 S·m2/mol
same,molar conductivity,[2]; c1 = 0.0008925,0.007568 ± 3e-06 S·m2/mol
CCCCCCCCn1cc[n+](C)c1.[Br-] [1-methyl-3-octylimidazolium bromide] + C[S+](C)[O-],mass density,[1]; m1 = 0.003697,1095.43 ± 6.5 kg/m3
same,mass density,[1]; m1 = 0.007705,1095.54 ± 6.5 kg/m3
same,mass density,[1]; m1 = 0.01147,1095.63 ± 6.5 kg/m3
same,mass density,[1]; m1 = 0.01568,1095.74 ± 6.5 kg/m3
same,mass density,[1]; m1 = 0.01953,1095.84 ± 6.5 kg/m3
same,mass density,[1]; m1 = 0.02373,1095.95 ± 6.5 kg/m3
same,mass density,[1]; m1 = 0.02785,1096.05 ± 6.5 kg/m3
same,mass density,[1]; m1 = 0.03185,1096.15 ± 6.5 kg/m3
same,mass density,[1]; m1 = 0.03581,1096.25 ± 6.5 kg/m3
same,mass density,[1]; m1 = 0.03956,1096.34 ± 6.5 kg/m3
same,molar conductivity,[2]; c1 = 0.0002816,0.003566 ± 2e-06 S·m2/mol
same,molar conductivity,[2]; c1 = 0.0003649,0.003551 ± 2e-06 S·m2/mol
same,molar conductivity,[2]; c1 = 0.0004495,0.00354 ± 2e-06 S·m2/mol
same,molar conductivity,[2]; c1 = 0.0005343,0.003529 ± 2e-06 S·m2/mol
same,molar conductivity,[2]; c1 = 0.000601,0.003521 ± 2e-06 S·m2/mol
same,molar conductivity,[2]; c1 = 0.000699,0.00351 ± 2e-06 S·m2/mol
same,molar conductivity,[2]; c1 = 0.0007785,0.003501 ± 2e-06 S·m2/mol
same,molar conductivity,[2]; c1 = 0.0008592,0.003493 ± 2e-06 S·m2/mol
same,molar conductivity,[2]; c1 = 0.0009426,0.003485 ± 1e-06 S·m2/mol
CCCCCCCCn1cc[n+](C)c1.[Br-] [1-methyl-3-octylimidazolium bromide] + OCCO,mass density,[1]; m1 = 0.006765,1110.04 ± 6.7 kg/m3
same,mass density,[1]; m1 = 0.007869,1110.06 ± 6.7 kg/m3
same,mass density,[1]; m1 = 0.01325,1110.12 ± 6.7 kg/m3
same,mass density,[1]; m1 = 0.0167,1110.22 ± 6.7 kg/m3
same,mass density,[1]; m1 = 0.02074,1110.25 ± 6.7 kg/m3
same,mass density,[1]; m1 = 0.02364,1110.34 ± 6.7 kg/m3
same,mass density,[1]; m1 = 0.03075,1110.39 ± 6.7 kg/m3
same,mass density,[1]; m1 = 0.03492,1110.42 ± 6.7 kg/m3
same,mass density,[1]; m1 = 0.03798,1110.48 ± 6.7 kg/m3
same,molar conductivity,[2]; c1 = 0.0003384,0.000678 ± 1e-06 S·m2/mol
same,molar conductivity,[2]; c1 = 0.0004129,0.000677 ± 1e-06 S·m2/mol
same,molar conductivity,[2]; c1 = 0.0004841,0.000675 ± 1e-06 S·m2/mol
same,molar conductivity,[2]; c1 = 0.0005608,0.000674 ± 1e-06 S·m2/mol
same,molar conductivity,[2]; c1 = 0.0006367,0.000673 ± 1e-06 S·m2/mol
same,molar conductivity,[2]; c1 = 0.0007095,0.000672 ± 1e-06 S·m2/mol
same,molar conductivity,[2]; c1 = 0.0007842,0.000671 ± 1e-06 S·m2/mol
same,molar conductivity,[2]; c1 = 0.0008592,0.00067 ± 1e-06 S·m2/mol
same,molar conductivity,[2]; c1 = 0.0009615,0.000669 ± 1e-06 S·m2/mol
same,molar conductivity,[2]; c1 = 0.001054,0.000668 ± 1e-06 S·m2/mol
C[S+](C)[O-] [dimethyl sulfoxide] + CCCCCCCCCCCCn1cc[n+](C)c1.[Br-],mass density,[1]; m2 = 0,1095.35 ± 6.5 kg/m3
C[S+](C)[O-] [dimethyl sulfoxide] + CCCCCCCCCCn1cc[n+](C)c1.[Br-],mass density,[1]; m2 = 0,1095.33 ± 6.5 kg/m3
C[S+](C)[O-] [dimethyl sulfoxide] + CCCCCCCCn1cc[n+](C)c1.[Br-],mass density,[1]; m2 = 0,1095.33 ± 6.5 kg/m3
CN(C)C=O [dimethylformamide] + CCCCCCCCCCCCn1cc[n+](C)c1.[Br-],mass density,[1]; m2 = 0,944.305 ± 4.8 kg/m3
CN(C)C=O [dimethylformamide] + CCCCCCCCCCn1cc[n+](C)c1.[Br-],mass density,[1]; m2 = 0,944.305 ± 4.8 kg/m3
CN(C)C=O [dimethylformamide] + CCCCCCCCn1cc[n+](C)c1.[Br-],mass density,[1]; m2 = 0,944.305 ± 4.8 kg/m3
